Measurements from patent publication US20190358286A1, “METHODS FOR THE PREVENTION OR TREATMENT OF LEFT VENTRICLE REMODELING” (Stealth BioTherapeutics Corp., priority 2013, published 2019).
Non-standard residues stand in square brackets, D forms with d. Residues, ends and D or L forms follow the SMILES beside them. Dmt = Cc1cc(O)cc(C)c1C[C@H](N)C(=O)O

Legend:
[1] = test system: several mammalian cell types; conditions: energy-independent manner; cited from earlier work
[2] = test system: rats with permanent coronary artery occlusion; test: Deaths during 6 weeks treatment; format: in vivo, rat; conditions: 74 rats randomized to peptide or water
Description: Rats were anesthetized, ventilated, and a thoracotomy performed in the left 4th intercostal space. Temperature was maintained at 36° C. by placing the rats on a heating pad during the procedure. The pericardium was excised and the proximal left coronary artery isolated and permanently occluded with a suture. Coronary artery occlusion was confirmed by cyanosis and akinesis of the anterior wall of the ventricle. The chest was closed, air evacuated, and the rats allowed to recover. Analgesia was administered per the veterinarian. An echocardiogram was obtained at approximately 15 minutes post coronary artery occlusion. At 2 hours rats were randomized to receive chronic daily D-Arg-2′,6′-Dmt-Lys-Phe-NH2 (delivered subcutaneously by an Alzet Osmotic Pump—3 mg/kg/day) or water. […] Heart rate and blood pressure were measured. A Millar catheter was inserted into the left ventricle and LV systolic pressure, LV end diastolic pressure, +dP/dt, and −dP/dt were measured. […] Postmortem left ventricle volume was measured by filling the LV cavity with fluid and measuring the total fluid. […] Quantitative histologic analysis included: total circumference, scar circumference, non-infarcted wall circumference, total LV area, total LV cavity area, LV wall thickness (at several points), non-infarcted wall thickness; myocardial infarct expansion index. […]

Compound: 2′,6′-Dmt-D-Arg-Phe-Lys-NH2
- penetration of the plasma membrane [1]: readily penetrates

Compound: Cc1cc(O)cc(C)c1C[C@H](NC(=O)[C@H](N)CCCNC(=N)N)C(=O)N[C@@H](CCCCN)C(=O)N[C@@H](Cc1ccccc1)C(N)=O [D-Arg-2′,6′-Dmt-Lys-Phe-NH2] (H-[dR][Dmt]KF-NH2)
- deaths during the 6 weeks treatment [2]: no rats died
